# From PubChem BioAssay (NCI)
#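 48-hour exposure; five concentrations; linearly interpolated endpoints. The concentration for 50% growth inhibition is given as GI50. TGI: total growth inhibition.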
# Assays:
# Assay in all cases: inhibition of tumour cell growth, NCI panel, 48 h
# UACC-257 melanoma = tested on: UACC-257 melanoma
# SF-539 CNS = tested on: SF-539 CNS
# NCI-H522 lung = tested on: NCI-H522 lung
# UACC-62 melanoma = tested on: UACC-62 melanoma
# SF-268 CNS = tested on: SF-268 CNS
# HCT-15 colon = tested on: HCT-15 colon
# OVCAR-5 ovarian = tested on: OVCAR-5 ovarian
# MCF7 breast = tested on: MCF7 breast
# KM12 colon = tested on: KM12 colon
# K-562 leukemia = tested on: K-562 leukemia
# SNB-19 CNS = tested on: SNB-19 CNS
# A498 renal = tested on: A498 renal
# BT-549 breast = tested on: BT-549 breast
# DU-145 prostate = tested on: DU-145 prostate
# PC-3 prostate = tested on: PC-3 prostate
# SK-MEL-28 melanoma = tested on: SK-MEL-28 melanoma
# HOP-62 NSCLC = tested on: HOP-62 NSCLC
# RPMI-8226 leukemia = tested on: RPMI-8226 leukemia
# EKVX NSCLC = tested on: EKVX NSCLC
# 786-0 renal = tested on: 786-0 renal
# TK-10 renal = tested on: TK-10 renal
# NCI-H23 lung = tested on: NCI-H23 lung
# MOLT-4 leukemia = tested on: MOLT-4 leukemia
# U251 CNS = tested on: U251 CNS
# SK-MEL-2 melanoma = tested on: SK-MEL-2 melanoma
# M14 melanoma = tested on: M14 melanoma
# SF-295 CNS = tested on: SF-295 CNS
# IGROV1 ovarian = tested on: IGROV1 ovarian
# OVCAR-3 ovarian = tested on: OVCAR-3 ovarian
compound,measurement,setting,value
CN1CCN(c2ccc(Nc3nc(NCCNS(=O)(=O)c4ccc5ccccc5c4)c4sccc4n3)cc2)CC1,GI50,UACC-257 melanoma,1.84 µM
same,TGI,UACC-257 melanoma,3.56 µM
same,GI50,SF-539 CNS,1.91 µM
same,TGI,SF-539 CNS,4.05 µM
same,GI50,NCI-H522 lung,7.16 µM
same,TGI,NCI-H522 lung,21.6 µM
same,GI50,UACC-62 melanoma,11.7 µM
same,TGI,UACC-62 melanoma,24 µM
same,GI50,SF-268 CNS,11.5 µM
same,TGI,SF-268 CNS,30.2 µM
same,GI50,HCT-15 colon,2.31 µM
same,TGI,HCT-15 colon,5.59 µM
same,GI50,OVCAR-5 ovarian,11.5 µM
same,TGI,OVCAR-5 ovarian,23.7 µM
same,GI50,MCF7 breast,4.04 µM
same,TGI,MCF7 breast,15.7 µM
same,GI50,KM12 colon,16.2 µM
same,TGI,KM12 colon,35.7 µM
same,GI50,K-562 leukemia,2.27 µM
same,TGI,K-562 leukemia,7.15 µM
same,GI50,SNB-19 CNS,16.3 µM
same,TGI,SNB-19 CNS,30 µM
same,GI50,A498 renal,19.2 µM
same,TGI,A498 renal,34 µM
same,GI50,BT-549 breast,12.4 µM
same,TGI,BT-549 breast,24.9 µM
same,GI50,DU-145 prostate,12 µM
same,TGI,DU-145 prostate,25 µM
same,GI50,PC-3 prostate,11.4 µM
same,TGI,PC-3 prostate,31.1 µM
same,GI50,SK-MEL-28 melanoma,2.21 µM
same,TGI,SK-MEL-28 melanoma,5 µM
same,GI50,HOP-62 NSCLC,15 µM
same,TGI,HOP-62 NSCLC,29.2 µM
same,GI50,RPMI-8226 leukemia,2.46 µM
same,TGI,RPMI-8226 leukemia,6.18 µM
same,GI50,EKVX NSCLC,13 µM
same,TGI,EKVX NSCLC,26.3 µM
same,GI50,786-0 renal,2.69 µM
same,TGI,786-0 renal,8.16 µM
same,GI50,TK-10 renal,21.5 µM
same,TGI,TK-10 renal,37.3 µM
same,GI50,NCI-H23 lung,13.3 µM
same,TGI,NCI-H23 lung,26.9 µM
same,GI50,MOLT-4 leukemia,4.55 µM
same,TGI,MOLT-4 leukemia,24.1 µM
same,GI50,U251 CNS,3.21 µM
same,TGI,U251 CNS,12 µM
same,GI50,SK-MEL-2 melanoma,19.6 µM
same,TGI,SK-MEL-2 melanoma,36.1 µM
same,GI50,M14 melanoma,1.88 µM
same,TGI,M14 melanoma,3.4 µM
same,GI50,SF-295 CNS,11.8 µM
same,TGI,SF-295 CNS,24.1 µM
same,GI50,IGROV1 ovarian,11 µM
same,TGI,IGROV1 ovarian,23.4 µM
same,GI50,OVCAR-3 ovarian,10.7 µM
same,TGI,OVCAR-3 ovarian,28.1 µM
